Laboratory results as given in PubChem BioAssay AID248 (DTP/NCI, 2004).
Values joined by “and” are separate entries in the source; they are usually repeats but may differ in a detail not shown here. Identical values can stand only once. Inconclusive results and toxic doses are left out. Rule as the data show it: active = T/C of 150% or more; inactive = T/C below 125%.

System: L1210 leukemia ip in BDF1 mice, survival T/C
Test: NCI In Vivo Anticancer Drug Screen. Data for tumor model L1210 Leukemia (intraperitoneal) in B6D2F1 (BDF1) mice
Conditions: endpoint: mean survival time, higher = longer survival
In short: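 Transplantable tumor model; survival measured in treated vs vehicle control mice. Value = treated/control.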

[1] = dose: 100.0 mg/kg/injection, schedule: Q01DX001 (ip), vehicle: carboxymethylcellulose (CMC)
[2] = dose: 200.0 mg/kg/injection, schedule: Q01DX001 (ip), vehicle: carboxymethylcellulose (CMC)
[3] = dose: 400.0 mg/kg/injection, schedule: Q01DX001 (ip), vehicle: carboxymethylcellulose (CMC)
[4] = dose: 12.5 mg/kg/injection, schedule: Q04DX002 (ip), vehicle: Klucel (hydroxypropylcellulose) (HPC)
[5] = dose: 25.0 mg/kg/injection, schedule: Q04DX002 (ip), vehicle: Klucel (hydroxypropylcellulose) (HPC)
[6] = dose: 100.0 mg/kg/injection, schedule: Q01DX009 (ip), vehicle: Klucel (hydroxypropylcellulose) (HPC)
[7] = dose: 200.0 mg/kg/injection, schedule: Q01DX009 (ip), vehicle: Klucel (hydroxypropylcellulose) (HPC)
[8] = dose: 400.0 mg/kg/injection, schedule: Q01DX009 (ip), vehicle: Klucel (hydroxypropylcellulose) (HPC)
[9] = dose: 100.0 mg/kg/injection, schedule: Q04DX003 (ip), vehicle: Klucel (hydroxypropylcellulose) (HPC)
[10] = dose: 200.0 mg/kg/injection, schedule: Q04DX003 (ip), vehicle: Klucel (hydroxypropylcellulose) (HPC)
[11] = dose: 400.0 mg/kg/injection, schedule: Q04DX003 (ip), vehicle: Klucel (hydroxypropylcellulose) (HPC)
[12] = dose: 100.0 mg/kg/injection, schedule: Q04DX003 (ip), vehicle: saline with Tween-80
[13] = dose: 200.0 mg/kg/injection, schedule: Q04DX003 (ip), vehicle: saline with Tween-80
[14] = dose: 400.0 mg/kg/injection, schedule: Q04DX003 (ip), vehicle: saline with Tween-80
[15] = dose: 100.0 mg/kg/injection, schedule: Q01DX001 (ip), vehicle: saline
[16] = dose: 200.0 mg/kg/injection, schedule: Q01DX001 (ip), vehicle: saline
[17] = dose: 50.0 mg/kg/injection, schedule: Q01DX009 (ip), vehicle: Klucel (hydroxypropylcellulose) (HPC)
[18] = dose: 100.0 mg/kg/injection, schedule: Q01DX001 (ip), vehicle: saline with Tween-80
[19] = dose: 100.0 mg/kg/injection, schedule: Q04DX002 (ip), vehicle: saline with Tween-80
[20] = dose: 200.0 mg/kg/injection, schedule: Q01DX001 (ip), vehicle: saline with Tween-80
[21] = dose: 200.0 mg/kg/injection, schedule: Q04DX002 (ip), vehicle: saline with Tween-80
[22] = dose: 400.0 mg/kg/injection, schedule: Q01DX001 (ip), vehicle: saline with Tween-80

Measured: T/C

O=C(O)c1ccc(C(Cl)C(Cl)(Cl)Cl)cc1O (configuration not stated)
inactive: [1] 92 % of control | [2] 94 % of control | [3] 96 % of control

NC(C(=O)O)c1ccccc1 (configuration not stated)
inactive: [4] 96 % of control | [5] 104 % of control | dose: 50.0 mg/kg/injection, schedule: Q04DX002 (ip), vehicle: Klucel (hydroxypropylcellulose) (HPC) 96 % of control

CCCCCCCCCCCCCCCCCC(=O)N/N=C/c1ccc(N(C)C)cc1
inactive: [6] 93 % of control | [7] 94 % of control | [8] 98 % of control

O=C(Nc1ccc(Nc2ccncc2)cc1)c1ccc(Nc2ccnc3ccc([N+](=O)[O-])cc23)cc1
inactive: [6] 92 % of control | [9] 101 % of control | [7] 109 % of control | [10] 97 % of control | [8] 95 % of control | [11] 108 % of control

O=C(O)c1ccnc(Cl)c1
inactive: [12] 101 % of control | [13] 102 % of control | [14] 101 % of control

CCCCCCCCCCCCCCCCCOc1ccc(Sc2ccc([N+](=O)[O-])cc2)cc1
inactive: [10] 92 % of control

CC1CCC(O)(C(C)(C(=O)O)c2ccccc2)CC1 (configuration not stated)
inactive: dose: 55.0 mg/kg/injection, schedule: Q01DX Z (ip), vehicle: methylcellulose (MC) 96 % of control | dose: 83.0 mg/kg/injection, schedule: Q01DX Z (ip), vehicle: methylcellulose (MC) 105 % of control | dose: 125.0 mg/kg/injection, schedule: Q01DX Z (ip), vehicle: methylcellulose (MC) 93 % of control

N#CC(C(=O)c1ccccc1)=C([SH2+])[SH2+].N#CC(C(=O)c1ccccc1)=C([SH2+])[SH2+].[Cu+2].c1ccc([AsH](c2ccccc2)(c2ccccc2)c2ccccc2)cc1
inactive: [15] 103 % of control | dose: 100.0 mg/kg/injection, schedule: Q04DX003 (ip), vehicle: saline 100 % of control | [16] 105 % of control | dose: 200.0 mg/kg/injection, schedule: Q04DX003 (ip), vehicle: saline 96 % of control | dose: 400.0 mg/kg/injection, schedule: Q01DX001 (ip), vehicle: saline 98 % of control | dose: 400.0 mg/kg/injection, schedule: Q04DX003 (ip), vehicle: saline 98 % of control

CC1(C)N=C(N)N=C(N)N1c1cccc(C(=O)Nc2cccc(S(=O)(=O)F)c2)c1
inactive: dose: 6.25 mg/kg/injection, schedule: Q#A X018 (ip), vehicle: saline 97 % of control | dose: 12.5 mg/kg/injection, schedule: Q01DX009 (ip), vehicle: saline 103 % of control | dose: 12.5 mg/kg/injection, schedule: Q#A X018 (ip), vehicle: saline 101 % of control | dose: 25.0 mg/kg/injection, schedule: Q01DX009 (ip), vehicle: saline 101 % of control | dose: 25.0 mg/kg/injection, schedule: Q#A X018 (ip), vehicle: saline 101 % of control | dose: 50.0 mg/kg/injection, schedule: Q01DX009 (ip), vehicle: saline 95 % of control and 107 % of control | dose: 50.0 mg/kg/injection, schedule: Q#A X018 (ip), vehicle: saline 101 % of control | [15] 105 % of control | dose: 100.0 mg/kg/injection, schedule: Q01DX009 (ip), vehicle: saline 104 % of control | [16] 94 % of control

O=C(CC(O)(C(F)(F)F)C(F)(F)F)C(Cl)C(O)(C(F)(F)F)C(F)(F)F (configuration not stated)
inactive: dose: 25.0 mg/kg/injection, schedule: Q01DX001 (ip), vehicle: other 104 % of control | dose: 50.0 mg/kg/injection, schedule: Q01DX001 (ip), vehicle: other 86 % of control

CC(=O)c1ccc(OS(=O)(=O)c2ccc([N+](=O)[O-])cc2)cc1
inactive: [6] 90 % of control | [9] 94 % of control | [7] 90 % of control | [10] 94 % of control | [8] 86 % of control | [11] 89 % of control

CCOC(CNC(=O)OCc1ccccc1)OCC
inactive: [17] 98 % of control | [6] 96 % of control and 106 % of control | [9] 96 % of control | dose: 150.0 mg/kg/injection, schedule: Q01DX009 (ip), vehicle: Klucel (hydroxypropylcellulose) (HPC) 102 % of control | [7] 98 % of control | [10] 105 % of control | [8] 101 % of control | [11] 97 % of control

CCCN(CCC)C(=O)CCl
inactive: [15] 109 % of control | [16] 95 % of control

O=C(O)CCCNC(=O)C(F)(F)F
inactive: [18] 95 % of control and 98 % of control | [19] 101 % of control and 103 % of control | [12] 100 % of control | [20] 95 % of control and 91 % of control | [21] 95 % of control and 92 % of control | [13] 95 % of control and 96 % of control | [22] 96 % of control and 92 % of control | dose: 400.0 mg/kg/injection, schedule: Q04DX002 (ip), vehicle: saline with Tween-80 100 % of control and 108 % of control | [14] 93 % of control and 100 % of control

CC(O)C[P+](c1ccccc1)(c1ccccc1)c1ccccc1 (configuration not stated)
inactive: [15] 110 % of control | [16] 96 % of control

Cc1nc(CCl)no1
inactive: [19] 104 % of control | [21] 95 % of control

CC[CH2][Pb]([CH2]CC)([CH2]CC)[O]C(=O)C(F)(F)F
inactive: [4] 107 % of control | [5] 95 % of control

CC(=O)Nc1ccc(NC(=O)Nc2ccccc2C(F)(F)F)cc1
inactive: [1] 94 % of control and 90 % of control | dose: 100.0 mg/kg/injection, schedule: Q01DX009 (ip), vehicle: carboxymethylcellulose (CMC) 93 % of control and 97 % of control | dose: 100.0 mg/kg/injection, schedule: Q04DX002 (ip), vehicle: carboxymethylcellulose (CMC) 95 % of control and 102 % of control | dose: 100.0 mg/kg/injection, schedule: Q04DX003 (ip), vehicle: carboxymethylcellulose (CMC) 100 % of control and 117 % of control | [2] 94 % of control and 90 % of control | dose: 200.0 mg/kg/injection, schedule: Q01DX009 (ip), vehicle: carboxymethylcellulose (CMC) 94 % of control and 96 % of control | dose: 200.0 mg/kg/injection, schedule: Q04DX002 (ip), vehicle: carboxymethylcellulose (CMC) 96 % of control and 92 % of control | dose: 200.0 mg/kg/injection, schedule: Q04DX003 (ip), vehicle: carboxymethylcellulose (CMC) 95 % of control and 99 % of control | [3] 97 % of control | dose: 400.0 mg/kg/injection, schedule: Q01DX009 (ip), vehicle: carboxymethylcellulose (CMC) 98 % of control and 91 % of control | dose: 400.0 mg/kg/injection, schedule: Q04DX002 (ip), vehicle: carboxymethylcellulose (CMC) 86 % of control | dose: 400.0 mg/kg/injection, schedule: Q04DX003 (ip), vehicle: carboxymethylcellulose (CMC) 91 % of control

CC1CN=C(c2ccc(NC(=O)Nc3ccc(C4=NCCN4)cc3)cc2)N1 (configuration not stated)
inactive: dose: 1.88 mg/kg/injection, schedule: Q01DX Z (ip), vehicle: saline 112 % of control | dose: 3.75 mg/kg/injection, schedule: Q01DX Z (ip), vehicle: saline 113 % of control

CC(C)=CCC(C#N)(CCN1CCCC1)c1cccc2ccccc12 (configuration not stated)
inactive: dose: 12.5 mg/kg/injection, schedule: Q01DX009 (ip), vehicle: Klucel (hydroxypropylcellulose) (HPC) 100 % of control | dose: 25.0 mg/kg/injection, schedule: Q01DX009 (ip), vehicle: Klucel (hydroxypropylcellulose) (HPC) 118 % of control | [17] 105 % of control

O=C(NO)Nc1ccc([N+](=O)[O-])cc1
inactive: [18] 97 % of control | dose: 100.0 mg/kg/injection, schedule: Q01DX009 (ip), vehicle: saline with Tween-80 93 % of control | [20] 90 % of control | dose: 200.0 mg/kg/injection, schedule: Q01DX009 (ip), vehicle: saline with Tween-80 89 % of control | [22] 99 % of control | dose: 400.0 mg/kg/injection, schedule: Q01DX009 (ip), vehicle: saline with Tween-80 98 % of control

O=C(COc1ccccc1)NCCNC(=S)Nc1ccccc1
inactive: [18] 102 % of control | [20] 94 % of control | [22] 112 % of control
